From patent publication US10829466B2, “Stilbene derivative and preparation method thereof” (BEIJING INSTITUTE OF TECHNOLOGY, priority 2015, dated 2020)
Entries after “also recorded” stand apart in the source; their conditions may differ.

What was measured:
[1] = system: neurogenesis in rat hippocampus; assay: Detection of neurogenesis in rat hippocampus by BrdU labeling (DAB immunohistochemistry); assay type: in vivo; conditions: for BrdU labeling result: SD male rats, intraperitoneal injection 28 days, 4 mg/Kg, compared with the control group; for neurogenesis activity (in words): under the test conditions of the embodiments, same dose; for activity of proliferation promotion (BrdU positive) at low dose: low dose 0.5 mg/Kg, compared with blank sample (V), FIG. 10
Source text: Example 36: Detection of Neurogenesis in Rat Hippocampus by BrdU (5-Bromo-2-deoxy Uridine, 5-bromodeoxyuridine) Labeling
Experimental animals: 10-week-old SD male rats having a body weight of about 300 g are purchased. The rats are used in experiments one week after being adapted to the environment in an animal room. Experimental groups: control group, drug group. 2-3 rats per group. Experimental reagent: injection oil is used to dissolve a compound to be tested. Rates in the control group are injected with the same dose of dissolving oil.
Test method: intraperitoneal injection is carried out 28 days at the injection dose of 0.5 ml-1 ml each time. Dose: 4 mg/Kg.
1) marker injection: BrdU (dissolved in sterile saline solution at a concentration of 10 mg/mL) solution is injected intraperitoneally into rats. (For rats with different body weights, the injection dose of BrdU is 50 mg·Kg^−1, injection is carried out twice every 2 hour; the intraperitoneal injection 24 hours before anesthesia ends.
2) Anesthesia: Anesthesia is performed by intraperitoneal injection of sodium pentobarbital solution into rats. (For rats with different body weights, the injection dose of sodium pentobarbital is usually 70 mg·Kg^−1.)
3) Cardiac perfusion: cardiac perfusion with normal saline is performed according to a general method.
4) Taking of brain tissues: The heads of the rats are separated from the bodies with surgical forceps and scissors, and then the muscles and membrane tissues at the top of the skulls are removed and brains are then gently peeled from the skulls. The separated brains are soaked in 4% paraformaldehyde for 24-48 hours.
5) Dehydration of brain tissues: the fixed tissues are soaked with a 20% sucrose PBS solution for more than 72 hours, and then the brain tissues are soaked with a 30% sucrose PBS solution for more than 72 hours.
6) Frozen section: the brain tissues are cut into […] thick sections by a general coronal section procedure.
7) DAB immunohistochemistry step: DNA denaturation is carried out and the sections are transferred to a 24-well plate (pH 7.4) perfused with 0.1 M PBS. The brain sections are incubated with 1% H2O2 for 30 minutes to remove […]; the sections are then treated with a 2M HCl solution for 30 minutes at room temperature to denature them. After completion of the denaturation, the brain sections are immersed in a 0.1 M sodium borate (pH 8.5) solution for 5 minutes and rinsed twice; the brain sections are incubated in 0.5% PBST for 1 hour at room temperature, and then are blocked for 1 hour with a serum blocking solution on a shaker at room temperature, and the serum blocking solution is from the same source as a secondary antibody; the samples are treated on the shaker with a BrdU primary antibody overnight at 4° C., and the BrdU primary antibody is diluted with the blocking solution; the samples are incubated with the biotinylated secondary antibody IgG for 2 hours at room temperature; a C (ABC kit) solution is incubated at room temperature for 2 hours; finally, after 3 to 5 minutes of color development by the DAB kit, the samples are mounted by using a PVP mounting medium and then dried, and finally the experimental results are detected under a microscope.
The dose-effect relationships of different compounds is further tested according to the method of Example 36, and the compounds include WS-54 (E-4-isobutyrylamino-3′,4′-methylenedioxy-stilbene), WS-69 (E-4-Methylsulfonamino-3′,4′-methylenedioxy-stilbene), WS-70 (E-4-Benzamino-3′,4′-methylenedioxy-stilbene), and WS-74 (E-4-Cyclopropylformamino-3′,4′-methylenedioxy-stilbene).

HEK293 = assay: In vitro cytotoxicity experiment (MTT, cell survival); assay type: cell-based; conditions: for cell survival rates: HEK293, 24 h, MTT, at all three doses, low, medium and high (100 μM; 500 μM; 1000 μM); for neuronal cytotoxicity / neurotoxicity (in words): HEK293, in vitro test, FIG. 3
Description: Example 35: In Vitro Cytotoxicity Experiment the Experimental Cell Line is HEK293
Cells are cultured in a 96-well plate at a cell concentration of 5000/well. After 24 hours of cell culture, the drug treatment is performed and the experiment is carried out on two groups: the control group is added with DMSO with the same concentration as that for the experimental group; in the experimental group, each compound is tested at three doses of low, medium and high doses (100 μM; 500 μM; 1000 μM), and five parallels are tested at each dose; in the blank group, a complete medium is added with a compound to be tested with the same concentration as that for the experimental group. Constant temperature incubation is carried out for 24 h in a CO2 incubator, MTT with a final concentration of 0.5 mg/mL is then added; 4 hours later, 200 μL of DMSO solution is added, and the absorbance is measured at 490 nm. The cell survival is calculated according to the absorbance; Survival %=(Average concentration−Blank concentration)/(Average control concentration−Blank concentration)*100%.
Reference is made to FIG. 3 which illustrates an in vitro cytotoxicity test chart of a novel stilbene derivative according to an example of embodiments of the present invention.

Row | Molecule | BrdU labeling result [1] | neuronal cytotoxicity / neurotoxicity (in words) (HEK293) | other results
1 | CC(=O)N(C)c1ccc(/C=C/c2ccc3c(c2)OCO3)cc1 [WS-80, E-4′-(N-acetyl-N-methylamino)-3,4-methylenedioxy-stilbene, reference compound] | negative |  | neurogenesis activity (in words) [1]: no significant neurogenesis activity
2 | CC(=O)Nc1ccc(C#Cc2ccc3c(c2)OCO3)cc1 [WS-77, E-4′-acetamino-3,4-methylenedioxy-diphenylacetylene, reference compound] | positive |  | neurogenesis activity (in words) [1]: weak neurogenesis activity
3 | O=C(Nc1ccc(/C=C/c2ccc3c(c2)OCO3)cc1)c1ccccn1 [LSS-20, E-4-(2-pyridinecarboxamino)-3′,4′-methylenedioxy-stilbene] | positive |  | 
4 | Nc1ccc(/C=C/c2ccc3c(c2)OCO3)cc1 [WS-4, E-4-amino-3′,4′-methylenedioxy-stilbene, reference compound] |  | high neuronal cytotoxicity | cell survival rates (HEK293): less than 50%
5 | Oc1ccc(/C=C/c2ccc3c(c2)OCO3)cc1 [WS-11, E-4′-hydroxy-3,4-methylenedioxy-stilbene, reference compound] |  |  | neurogenesis activity (in words) [1]: no neurogenesis activity
6 | COc1cc(/C=C/c2ccc(OC(C)=O)cc2)cc(OC)c1 [WS-56, E-4-acetoxy-3′,5′-dimethoxy-stilbene, reference compound] |  |  | activity of proliferation promotion (BrdU positive) at low dose [1]: no significant activity
7 | CS(=O)(=O)Nc1ccc(/C=C/c2ccc3c(c2)OCO3)cc1 [WS-69, E-4-methanesulfonylamino-3′,4′-methylenedioxy-stilbene] | positive | low neurotoxicity | activity of proliferation promotion (BrdU positive) at low dose [1]: significant activities of proliferation promotion
8 | O=C(Nc1ccc(/C=C/c2ccc3c(c2)OCO3)cc1)c1ccccc1 [WS-70, E-4-benzoylamino-3′,4′-methylenedioxy-stilbene] | positive | low neurotoxicity; also recorded: greatly reduced | activity of proliferation promotion (BrdU positive) at low dose [1]: significant activities of proliferation promotion
9 | O=S(=O)(Nc1ccc(/C=C/c2ccc3c(c2)OCO3)cc1)c1ccccc1 [LSS-12, E-4-benzenesulfonylamino-3′,4′-methylenedioxy-stilbene] | positive |  | 
10 | O=C(Nc1ccc(/C=C/c2ccc3c(c2)OCO3)cc1)C1CC1 [WS-74, E-4-cyclopropylcarboxamino-3′,4′-methylenedioxy-stilbene] | positive | low neurotoxicity; also recorded: greatly reduced | activity of proliferation promotion (BrdU positive) at low dose [1]: significant activities of proliferation promotion
11 | CC(=O)Nc1ccc(/C=C/c2ccc3c(c2)OCO3)cc1F [WS-71, E-3,4-methylenedioxy-3′-fluoro-4′-acetylamino-stilbene] | positive | low neurotoxicity | 
12 | CC(C)C(=O)Nc1ccc(/C=C/c2ccc3c(c2)OCO3)cc1 [WS-54, E-4-isobutyrylamino-3′,4′-methylenedioxy-stilbene] | positive | low neurotoxicity | activity of proliferation promotion (BrdU positive) at low dose [1]: significant activities of proliferation promotion
13 | COc1cc(/C=C/c2ccc(NC(C)=O)cc2)cc(OC)c1 [WS-61, E-4-acetylamino-3′,5′-dimethoxy-stilbene, reference compound] |  | reduce neurotoxicity | 
14 | CC(=O)Nc1ccc(/C=C/C(=O)c2ccc3c(c2)OCO3)cc1 [WS-37, 4-acetylamino-3′,4′-methylenedioxychalcone, reference compound] |  | higher neuronal cytotoxicity | cell survival rates (HEK293): less than 10%
15 | CN(C)S(=O)(=O)Nc1ccc(/C=C/c2ccc3c(c2)OCO3)cc1 [LSS-17, E-4-(N,N-dimethylamino-sulfonamino)-3′,4′-methylenedioxy-stilbene] | positive |  | 
16 | E-4′-acetamino-3,4-methylenedioxy-diphenylethane [WS-35, reference compound] |  |  | neurogenesis activity (in words) [1]: no neurogenesis activity
17 | COc1ccc(/C=C/c2ccc(NC(C)=O)cc2)cc1OC [WS-43, E-4′-acetylamino-3,4-dimethoxy-stilbene, reference compound] |  |  | neurogenesis activity (in words) [1]: no significant neurogenesis activity
18 | O=C(Nc1ccc(/C=C/c2ccc3c(c2)OCO3)cc1)c1cccs1 [WS-73, E-4-(2-thienyl)formamino-3′,4′-methylenedioxy-stilbene] | positive | low neurotoxicity | 
19 | O=S(=O)(Nc1ccc(/C=C/c2ccc3c(c2)OCO3)cc1)C1CC1 [LSS-13, E-4-cyclopropylsulfonylamino-3′,4′-methylenedioxy-stilbene] | positive |  | 
20 | E-4′-tertamino-3,4-methylenedioxy-stilbene [WS-60, reference compound] |  |  | neurogenesis activity (in words) [1]: weak neurogenesis activity
21 | CC(=O)Oc1ccc(/C=C/c2ccc3c(c2)OCO3)cc1 [WS-10, E-4′-acetoxy-3,4-methylenedioxy-stilbene, reference compound] |  |  | neurogenesis activity (in words) [1]: no neurogenesis activity
22 | O=C(Nc1ccc(/C=C/c2ccc3c(c2)OCO3)cc1)C1CCC1 [WS-83, E-4-cyclobutylformamino-3′,4′-methylenedioxy-stilbene] | positive |  | 
23 | O=C(Cc1ccccc1)Nc1ccc(/C=C/c2ccc3c(c2)OCO3)cc1 [LSS-16, E-4-phenylacetylamino-3′,4′-methylenedioxy-stilbene] | positive |  | 
24 | CC(=O)Nc1cccc(/C=C/c2ccc3c(c2)OCO3)c1 [WS-49, E-3-acetylamino-3′,4′-methylenedioxy-stilbene, reference compound] |  | higher neuronal cytotoxicity | cell survival rates (HEK293): ≤ 20%
